Source: patent publication US20090311234A1, “USE OF BETA-LACTAMASE” (priority 2006, published 2009)

Experiment: Elimination of jejunal piperacillin during parenteral piperacillin/tazobactam therapy, canine model
Type: in vivo, beagle dogs
Details: i.v. 100 mg piperacillin and 12.5 mg tazobactam per kg; experiment 1; compared with ampicillin or amoxicillin
Description: Beagle dogs were treated with a combination of piperacillin and tazobactam without and with simultaneous beta-lactamase therapy. The experiments were performed essentially as those described in Examples 1 and 2, except that a single dose of the piperacillin/tazobactam combination contained 100 mg of piperacillin and 12.5 mg of tazobactam per kg of body weight, and the HPLC analysis method was elaborated to be suitable for analysis of piperacillin (the limit of quantification was 10 micrograms per gram of jejunal chyme).
Piperacillin values in experiment 1 represent jejunal piperacillin concentrations achieved after two separate administrations of piperacillin/tazobactam at a dosing interval of 6 hours without beta-lactamase treatment. Beagle dogs were treated with a piperacillin/tazobactam combination with concurrent beta-lactamase therapy in experiment 2.
The experiment was repeated except that the single dose of beta-lactamase pellets contained about 0.3 mg of active beta-lactamase per kg of body weight, and the single dose of the piperacillin/tazobactam combination contained 65.6 mg of piperacillin and 9.4 mg of tazobactam per kg of body weight.

CCN1CCN(C(=O)N[C@@H](C(=O)N[C@@H]2C(=O)N3[C@@H]2SC(C)(C)[C@@H]3C(=O)O)c2ccccc2)C(=O)C1=O [piperacillin]
biliary elimination of piperacillin without beta-lactamase: considerably higher than that of ampicillin or amoxicillin
